Experimental data taken from patent publication US20250144067A1, “PERSONALIZED STARVATION THERAPY FOR CANCER” (Faeth Therapeutics, Inc., priority 2021, published 2025).
Counter-ions that a name gives are not always drawn.

Experiments:
[1] = test system: NCI-H292 lung cancer cells; assay: FDA drug screening, complete media vs cholesterol-free media without statin (TABLE 1); assay type: cell-based, human
[2] = test system: NCI-H292 lung cancer cells; assay: FDA drug screening, complete media vs cholesterol-free media with simvastatin (TABLE 2); assay type: cell-based, human; conditions: for Cholesterol-free media + simvastatin (0.04 μM) / Complete Media: NCI-H292 cells
[3] = Complete minus Cholesterol-free, greater than 0 enhanced anti-cancer activity, about 0 neutral, below 0 antagonist
[4] = NCI-H292 cells, FDA drug library screen, cholesterol-free media without statin
[5] = NCI-H292 cells, FDA drug library screen, complete media
[6] = cholesterol-free media with simvastatin 0.04 μM, FDA drug library screen (TABLE 2)
[7] = complete media, FDA drug library screen (TABLE 2)
[8] = complete media minus cholesterol-free media + simvastatin (0.04 μM), >0 enhanced anti-cancer activity, about 0 neutral, <0 antagonist
[9] = FDA library drug in cholesterol-free media with simvastatin 0.04 μM
[10] = FDA library drug in complete media
[11] = complete media vs cholesterol-free media + simvastatin (0.04 μM), >0 enhanced anti-cancer activity, about 0 neutral, <0 antagonist
[12] = NCI-H292 cells, cholesterol-free media without statin
[13] = complete vs cholesterol-free media, greater than 0 enhanced anti-cancer activity, about 0 neutral, below 0 antagonists
[14] = cholesterol-free media with simvastatin 0.04 μM, cell growth value in FDA drug screen
[15] = complete media, cell growth value in FDA drug screen
[16] = complete media minus cholesterol-free media + simvastatin, >0 enhanced anti-cancer activity, about 0 neutral, <0 antagonist
[17] = NCI-H292 cells, cholesterol-free media without statin, FDA drug library screen
[18] = NCI-H292 cells, complete media, FDA drug library screen
[19] = FDA drug library screen, cholesterol-free media with simvastatin 0.04 μM
[20] = FDA drug library screen, complete media
[21] = NCI-H292 cells in cholesterol-free media without statin
[22] = NCI-H292 cells in complete media
[23] = Complete minus Cholesterol-free, >0 enhanced anti-cancer activity, about 0 neutral, <0 antagonist
[24] = complete vs cholesterol-free media, >0 enhanced anti-cancer activity, about 0 neutral, <0 antagonist

CC(C)(C)c1nc(-c2cccc(NS(=O)(=O)c3c(F)cccc3F)c2F)c(-c2ccnc(N)n2)s1 [Dabrafenib]
Difference [1, 3]: −0.18
Cholesterol-free [1, 4]: 0.7255
Complete [1, 5]: 0.5433
Cholesterol-free media + simvastatin (0.04 μM) [2, 6]: 0.7299
Complete Media [2, 7]: 0.7037
Difference [2, 8]: −0.03

CCC(=O)OCC(=O)[C@@]1(OC(=O)CC)[C@@H](C)C[C@H]2[C@@H]3CCC4=CC(=O)C=C[C@]4(C)[C@@]3(Cl)[C@@H](O)C[C@@]21C [Beclometasone dipropionate]
Difference [1, 3]: −0.19
Cholesterol-free [1, 4]: 1.005
Complete [1, 5]: 0.8203
Cholesterol-free media + simvastatin (0.04 μM) [2, 9]: 1.133
Complete Media [2, 10]: 0.8544
Difference [2, 11]: −0.28

Cc1cn(-c2cc(NC(=O)c3ccc(C)c(Nc4nccc(-c5cccnc5)n4)c3)cc(C(F)(F)F)c2)cn1 [Nilotinib]
Cholesterol-free [1, 12]: 1.511
Complete ([1]; NCI-H292 cells, complete media): 1.113
Difference [1, 13]: −0.40
Cholesterol-free media + simvastatin (0.04 μM) [2, 14]: 0.9437
Complete Media [2, 15]: 0.9791
Difference [2, 16]: 0.04

NCCCC[C@H](N)C(=O)O.O=C(O)COc1nn(Cc2ccccc2)c2ccccc12 [Bendazac L-Lysine]
Cholesterol-free [1, 17]: 0.6107
Complete [1, 18]: 1.115
Difference ([1]; complete vs cholesterol-free media, […]): 0.50
Cholesterol-free media + simvastatin (0.04 μM) [2, 19]: 1.079
Complete Media [2, 20]: 0.922
Difference ([2]; complete media vs cholesterol-free media + simvastatin (0.04 μM), […]): −0.16

COC(=O)/C=C/C(=O)OC [Dimethyl fumarate]
Difference [1, 3]: −0.13
Cholesterol-free [1, 4]: 0.8617
Complete [1, 5]: 0.7326
Cholesterol-free media + simvastatin (0.04 μM) [2, 19]: 0.991
Complete Media [2, 20]: 0.9095
Difference [2, 11]: −0.08

Cetrorelix (Acetate)
Difference ([1]; Complete minus Cholesterol-free, […]): −1.14
Cholesterol-free [1, 21]: 1.889
Complete [1, 22]: 0.7459
Cholesterol-free media + simvastatin (0.04 μM) ([2]; cholesterol-free media with simvastatin 0.04 μM, […]): 1.03
Difference ([2]; complete media minus cholesterol-free media + simvastatin, […]): 0.08

COc1nccnc1NS(=O)(=O)c1ccc(N)cc1 [Sulfalene]
Difference [1, 23]: −0.03
Cholesterol-free [1, 17]: 1.1
Complete [1, 18]: 1.067
Cholesterol-free media + simvastatin (0.04 μM) ([2]; drug in cholesterol-free media with simvastatin 0.04 μM): 1.16
Complete Media ([2]; drug in complete media): 0.9534
Difference [2, 11]: −0.21

Gemifloxacin (mesylate)
Difference [1, 23]: −0.22
Cholesterol-free [1, 12]: 1.118
Complete ([1]; NCI-H292 cells, complete media): 0.9009
Cholesterol-free media + simvastatin (0.04 μM) [2, 19]: 0.9496
Complete Media [2, 20]: 1.098
Difference [2, 16]: 0.15

O[C@H]1[C@H](O)[C@@H](O)[C@H](O)[C@@H](O)[C@H]1O [i-Inositol]
Difference [1, 23]: −0.01
Cholesterol-free [1, 17]: 1.553
Complete [1, 18]: 1.54
Cholesterol-free media + simvastatin (0.04 μM) [2, 6]: 0.9949
Complete Media [2, 7]: 0.9333
Difference [2, 8]: −0.06

O=C(Oc1ccccc1C(=O)O)c1ccccc1O [Salsalate]
Cholesterol-free [1, 12]: 1.58
Complete ([1]; NCI-H292 cells, complete media): 1.132
Difference [1, 13]: −0.45
Cholesterol-free media + simvastatin (0.04 μM) [2, 14]: 0.8804
Complete Media [2, 15]: 0.9361
Difference [2, 16]: 0.06

CCC(=O)O[C@@H](O[P@](=O)(CCCCc1ccccc1)CC(=O)N1C[C@H](C2CCCCC2)C[C@H]1C(=O)O)C(C)C [Fosinopril (sodium)]
Difference ([1]; Complete minus Cholesterol-free, greater than 0 enhanced anti-cancer activity, about 0 neutral, below 0 antagonists): −0.52
Cholesterol-free [1, 21]: 1.831
Complete [1, 22]: 1.313
Cholesterol-free media + simvastatin (0.04 μM) [2, 19]: 0.91
Complete Media [2, 20]: 1.199
Difference [2, 16]: 0.29

O=C[C@H](O)[C@@H](O)[C@H](O)CO [Xylose]
Cholesterol-free [1, 12]: 1.238
Complete ([1]; NCI-H292 cells, complete media): 0.9044
Difference [1, 13]: −0.33
Cholesterol-free media + simvastatin (0.04 μM) [2, 19]: 1.188
Complete Media [2, 20]: 1.083
Difference [2, 11]: −0.11

CCOC(=O)[C@H](CCc1ccccc1)N[C@@H](C)C(=O)N1C(=O)N(C)C[C@H]1C(=O)O [Imidapril (hydrochloride)]
Cholesterol-free [1, 17]: 0.9489
Complete [1, 18]: 1.458
Difference [1, 24]: 0.51
Cholesterol-free media + simvastatin (0.04 μM) [2, 9]: 1.282
Complete Media [2, 10]: 0.8523
Difference [2, 11]: −0.43

CNCCC(Oc1ccc(C(F)(F)F)cc1)c1ccccc1 (centres unmarked) [Fluoxetine (hydrochloride)]
Cholesterol-free [1, 12]: 1.383
Complete ([1]; NCI-H292 cells, complete media): 0.9864
Difference [1, 13]: −0.40
Cholesterol-free media + simvastatin (0.04 μM) [2, 19]: 0.8887
Complete Media [2, 20]: 1.043
Difference [2, 16]: 0.15

CCCN(CCc1cccs1)[C@H]1CCc2c(O)cccc2C1 [Rotigotine (Hydrochloride)]
Difference [1, 3]: −0.08
Cholesterol-free [1, 4]: 0.8788
Complete [1, 5]: 0.7943
Cholesterol-free media + simvastatin (0.04 μM) [2, 19]: 0.8026
Complete Media [2, 20]: 0.6752
Difference [2, 11]: −0.13

Bazedoxifene (acetate)
Difference [1, 23]: −0.29
Complete ([1]; NCI-H292 cells, complete media): 0.8636
Cholesterol-free media + simvastatin (0.04 μM) [2, 19]: 0.4477
Complete Media [2, 20]: 0.8485
Difference [2, 16]: 0.40

CCCCCCCCc1ccc(CCC(N)(CO)CO)cc1 [Fingolimod (hydrochloride)]
Cholesterol-free [1, 12]: 1.335
Complete ([1]; NCI-H292 cells, complete media): 0.8744
Difference [1, 13]: −0.46
Cholesterol-free media + simvastatin (0.04 μM) [2, 14]: 0.9867
Complete Media [2, 15]: 1.023
Difference [2, 16]: 0.04

COc1ccccc1O [Guaiacol]
Difference [1, 23]: −0.02
Cholesterol-free [1, 17]: 1.281
Complete [1, 18]: 1.265
Cholesterol-free media + simvastatin (0.04 μM) [2, 9]: 2.295
Complete Media [2, 10]: 1.473
Difference [2, 11]: −0.82

COc1cc2c(cc1OC)CC(=O)N(CCCN(C)C[C@H]1Cc3cc(OC)c(OC)cc31)CC2 [Ivabradine (hydrochloride)]
Difference [1, 13]: −0.47
Cholesterol-free media + simvastatin (0.04 μM) [2, 19]: 1.338
Complete Media [2, 20]: 1.217
Difference [2, 11]: −0.12

CC(=O)Nc1nnc(S(N)(=O)=O)s1 [Acetazolamide]
Cholesterol-free [1, 17]: 0.821
Complete [1, 18]: 0.9414
Difference [1, 24]: 0.12
Cholesterol-free media + simvastatin (0.04 μM) [2, 6]: 0.9594
Complete Media [2, 7]: 0.9398
Difference [2, 8]: −0.02

O=C(O)COC(=O)Cc1ccccc1Nc1c(Cl)cccc1Cl [Aceclofenac]
Cholesterol-free [1, 17]: 0.9513
Complete [1, 18]: 1.14
Difference [1, 24]: 0.19
Cholesterol-free media + simvastatin (0.04 μM) [2, 19]: 1.455
Complete Media [2, 20]: 1.329
Difference [2, 11]: −0.13

C[C@@H](O)[C@H]1C(=O)N2C(C(=O)O)=C(S[C@@H]3CN[C@H](CNS(N)(=O)=O)C3)[C@H](C)[C@H]12 [Doripenem (monohydrate)]
Difference [1, 23]: −0.25
Cholesterol-free [1, 12]: 1.011
Complete ([1]; NCI-H292 cells, complete media): 0.7618
Cholesterol-free media + simvastatin (0.04 μM) [2, 19]: 0.9911
Complete Media [2, 20]: 0.8363
Difference [2, 11]: −0.15

Cc1cc(/C=C/C#N)cc(C)c1Nc1ccnc(Nc2ccc(C#N)cc2)n1 [Rilpivirine]
Difference [1, 23]: 0.06
Cholesterol-free [1, 17]: 0.8235
Complete [1, 18]: 0.8865
Cholesterol-free media + simvastatin (0.04 μM) [2, 9]: 1.859
Complete Media [2, 10]: 1.359
Difference [2, 11]: −0.50
